Measured values from patent publication US20230120564A1, “PYRIDO[3,4-D]PYRIMIDINE DERIVATIVE AND THERAPEUTIC PHARMACEUTIC COMPOSITION COMPRISING SAME” (KOREA INSTITUTE OF SCIENCE AND TECHNOLOGY, priority 2020, published 2023).

Columns and labels:
ACK1 = ACK1 (Homo sapiens, UniProt Q07912); assay: Kinase inhibitory activity, IC50; assay type: biochemical
Experimental: (§1) The inhibitory activities of the compounds of the present invention against two kinases, GCK and ACK1, were measured, and the IC50 values thereof were calculated. As a control, the following compound GNF7 was used.

GCK = molecular target: T1, GCK (Homo sapiens, UniProt Q12851); assay: Kinase inhibitory activity, IC50; assay type: biochemical
T1 sequence (Q12851 1-820): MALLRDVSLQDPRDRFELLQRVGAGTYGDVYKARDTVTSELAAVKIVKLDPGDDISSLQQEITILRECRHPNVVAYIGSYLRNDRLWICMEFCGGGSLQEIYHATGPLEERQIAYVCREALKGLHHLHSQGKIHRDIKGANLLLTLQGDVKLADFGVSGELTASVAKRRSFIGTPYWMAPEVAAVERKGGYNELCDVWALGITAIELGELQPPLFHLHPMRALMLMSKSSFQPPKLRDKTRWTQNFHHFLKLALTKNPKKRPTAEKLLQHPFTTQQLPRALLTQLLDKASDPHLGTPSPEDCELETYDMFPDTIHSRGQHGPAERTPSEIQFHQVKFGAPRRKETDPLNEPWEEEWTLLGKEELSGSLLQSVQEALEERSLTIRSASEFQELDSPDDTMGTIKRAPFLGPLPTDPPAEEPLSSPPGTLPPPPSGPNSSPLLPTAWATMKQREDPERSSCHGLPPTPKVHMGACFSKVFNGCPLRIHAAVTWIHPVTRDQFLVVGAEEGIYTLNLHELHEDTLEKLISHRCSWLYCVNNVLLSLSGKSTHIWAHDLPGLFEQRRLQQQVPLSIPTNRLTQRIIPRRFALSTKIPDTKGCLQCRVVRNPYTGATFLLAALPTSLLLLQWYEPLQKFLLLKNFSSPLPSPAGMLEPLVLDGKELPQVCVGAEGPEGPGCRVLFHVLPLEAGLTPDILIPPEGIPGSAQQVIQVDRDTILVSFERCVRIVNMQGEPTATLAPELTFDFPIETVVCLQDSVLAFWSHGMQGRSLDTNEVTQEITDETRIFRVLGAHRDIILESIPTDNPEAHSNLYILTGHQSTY
Experimental: as §1

OCI-AML3 (N-Ras Q61L) = assay: Inhibition of cell proliferation (GI50); assay type: cell-based; details: Homo sapiens, OCI-AML-3; OCI-AML3 cell line; read-out: Proliferation inhibitory activity (GI50, μM) OCI-AML3 (N-Ras Q61L)
Experimental: (§2) The inhibitory activities of the compounds of the present invention against the proliferation of the mt-NRAS (G12D) Ba/F3 and […] (mt-NRAS) cell lines were measured and the GI50 values thereof were calculated.
Referring to the results in Table 2, it can be seen that the compound of the present invention has inhibitory activity against the proliferation of the human acute myeloid leukemia cell line (OCI-AML3) having the NRAS mutant gene, and the effect thereof is remarkable. Therefore, it can be seen that the compound of the present invention is particularly effective as a therapeutic agent for acute myeloid leukemia (AML).

Ba/F3 (N-Ras G12D) = assay: Inhibition of cell proliferation (GI50); assay type: cell-based; details: Mus musculus, BaF3; mt-NRAS (G12D) Ba/F3 cell line; read-out: Proliferation inhibitory activity (GI50, μM) Ba/F3 (N-Ras G12D)
Experimental: as §2

Ba/F3 (parental) = assay: Inhibition of cell proliferation (GI50); assay type: cell-based; details: Mus musculus, BaF3; Ba/F3 (parental) cell line; read-out: Proliferation inhibitory activity (GI50, μM) Ba/F3 (parental)
Experimental: The inhibitory activities of the compounds of the present invention against the proliferation of the Ba/F3 (parental) cell line were measured and the GI50 values thereof were calculated.

ACK1, sequence (Q07912 whole entry): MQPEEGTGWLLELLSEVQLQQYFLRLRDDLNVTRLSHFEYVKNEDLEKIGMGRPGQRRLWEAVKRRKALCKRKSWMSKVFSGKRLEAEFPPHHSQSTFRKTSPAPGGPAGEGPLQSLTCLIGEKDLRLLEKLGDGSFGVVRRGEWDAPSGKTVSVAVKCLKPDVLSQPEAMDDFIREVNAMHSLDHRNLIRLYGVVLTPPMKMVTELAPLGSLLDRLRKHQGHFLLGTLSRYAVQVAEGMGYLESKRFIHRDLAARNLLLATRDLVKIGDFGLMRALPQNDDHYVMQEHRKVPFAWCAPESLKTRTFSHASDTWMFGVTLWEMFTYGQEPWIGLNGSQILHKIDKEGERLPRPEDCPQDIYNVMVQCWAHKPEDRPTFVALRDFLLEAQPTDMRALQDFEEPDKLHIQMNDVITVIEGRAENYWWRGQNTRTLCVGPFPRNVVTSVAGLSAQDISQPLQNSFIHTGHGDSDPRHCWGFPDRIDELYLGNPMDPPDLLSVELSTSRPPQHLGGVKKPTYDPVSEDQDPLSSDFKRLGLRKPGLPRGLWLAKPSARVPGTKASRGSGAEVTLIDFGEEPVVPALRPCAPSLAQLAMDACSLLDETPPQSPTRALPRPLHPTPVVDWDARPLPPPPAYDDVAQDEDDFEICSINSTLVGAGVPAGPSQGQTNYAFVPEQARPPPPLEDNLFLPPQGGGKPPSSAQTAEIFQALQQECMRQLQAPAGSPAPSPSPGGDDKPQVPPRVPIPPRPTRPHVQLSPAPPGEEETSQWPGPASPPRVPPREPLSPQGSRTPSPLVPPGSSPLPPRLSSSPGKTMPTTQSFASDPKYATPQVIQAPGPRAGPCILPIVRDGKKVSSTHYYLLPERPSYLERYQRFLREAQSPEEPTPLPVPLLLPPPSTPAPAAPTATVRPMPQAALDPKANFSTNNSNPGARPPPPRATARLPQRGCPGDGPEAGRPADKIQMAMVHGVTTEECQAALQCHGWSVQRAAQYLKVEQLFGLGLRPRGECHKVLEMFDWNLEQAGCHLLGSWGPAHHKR

Row | IC50 (ACK1) | IC50 (GCK) | GI50 (OCI-AML3 (N-Ras Q61L)) | GI50 (Ba/F3 (N-Ras G12D)) | Compound | GI50 (Ba/F3 (parental))
1 | 0.1 to 1 µM | > 10 µM | < 0.5 µM | < 0.5 µM | Cc1ccc(Nc2ncc3cc(-c4cc(NC(=O)c5cccc(C(F)(F)F)c5)ccc4C)nc(Cl)c3n2)cn1 [Compound No. 1, N-(3-(8-chloro-2-((6-methylpyridin-3-yl)amino)pyrido[3,4-d]pyrimidin-6-yl)-4-methylphenyl)-3-(trifluoromethyl)benzamide] | > 5 µM
2 |  |  | 0.5 to 3 µM | < 0.5 µM | C=Cc1nc(-c2cc(NC(=O)c3cccc(C(F)(F)F)c3)ccc2C)cc2cnc(Nc3ccc(C)nc3)nc12 [Compound No. 2, N-(4-methyl-3-(2-((6-methylpyridin-3-yl)amino)-8-vinylpyrido[3,4-d]pyrimidin-6-yl)phenyl)-3-(trifluoromethyl)benzamide] | 3 to 5 µM
3 | 0.1 to 1 µM | > 10 µM | 0.5 to 3 µM | 0.5 to 3 µM | CCc1nc(-c2cc(NC(=O)c3cccc(C(F)(F)F)c3)ccc2C)cc2cnc(Nc3ccc(C)nc3)nc12 [Compound No. 3, N-(3-(8-ethyl-2-((6-methylpyridin-3-yl)amino)pyrido[3,4-d]pyrimidin-6-yl)-4-methylphenyl)-3-(trifluoromethyl)benzamide] | > 5 µM
4 |  |  | < 0.5 µM | 0.5 to 3 µM | COc1nc(-c2cc(NC(=O)c3cccc(C(F)(F)F)c3)ccc2C)cc2cnc(Nc3ccc(C)nc3)nc12 [Compound No. 8, N-(3-(8-methoxy-2-((6-methylpyridin-3-yl)amino)pyrido[3,4-d]pyrimidin-6-yl)-4-methylphenyl)-3-(trifluoromethyl)benzamide] | 3 to 5 µM
5 |  |  | < 0.5 µM | < 0.5 µM | Cc1ccc(Nc2ncc3cc(-c4cc(NC(=O)c5ccc(CN6CCOCC6)c(C(F)(F)F)c5)ccc4C)ncc3n2)cn1 [Compound No. 12, N-(4-methyl-3-(2-((6-methylpyridin-3-yl)amino)pyrido[3,4-d]pyrimidin-6-yl)phenyl)-4-(morpholinemethyl)-3-(trifluoromethyl)benzamide] | > 5 µM
6 |  |  | < 0.5 µM | < 0.5 µM | Cc1ccc(Nc2ncc3cc(-c4cc(NC(=O)c5cc(-n6cnc(C)c6)cc(C(F)(F)F)c5)ccc4C)ncc3n2)cn1 [Compound No. 13, 3-(4-methyl-1H-imidazol-1-yl)-N-(4-methyl-3-(2-((6-methylpyridin-3-yl)amino)pyrido[3,4-d]pyrimidin-6-yl)phenyl)-5-(trifluoromethyl)benzamide] | > 5 µM
7 |  |  | < 0.5 µM | < 0.5 µM | Cc1ccc(Nc2ncc3cc(-c4cc(NC(=O)c5cc(N6CCOCC6)cc(C(F)(F)F)c5)ccc4C)ncc3n2)cn1 [Compound No. 14, N-(4-methyl-3-(2-((6-methylpyridin-3-yl)amino)pyrido[3,4-d]pyrimidin-6-yl)phenyl)-3-morpholino-5-(trifluoromethyl)benzamide] | 0.5 to 3 µM
8 |  |  | < 0.5 µM | < 0.5 µM | Cc1ccc(NC(=O)c2cccc(C(F)(F)F)c2)cc1-c1cc2cnc(N)nc2cn1 [Compound No. 17, N-(3-(2-aminopyrido[3,4-d]pyrimidin-6-yl)-4-methylphenyl)-3-(trifluoromethyl)benzamide] | > 5 µM
9 | 0.1 to 1 µM | 0.1 to 1 µM | < 0.5 µM | < 0.5 µM | Cc1ccc(NC(=O)c2cccc(C(F)(F)F)c2)cc1-c1cc2cnc(NCCO)nc2cn1 [Compound No. 18, N-(3-(2-((2-hydroxyethyl)amino)pyrido[3,4-d]pyrimidin-6-yl)-4-methylphenyl)-3-(trifluoromethyl)benzamide] | > 5 µM
10 | 0.1 to 1 µM | 0.1 to 1 µM | < 0.5 µM | < 0.5 µM | Cc1ccc(NC(=O)c2cccc(C(F)(F)F)c2)cc1-c1cc2cnc(NC3CC3)nc2cn1 [Compound No. 19, N-(3-(2-(cyclicpropylamino)-pyrido[3,4-d]pyrimidin-6-yl)-4-methylphenyl)-3-(trifluoromethyl)benzamide] | 0.5 to 3 µM
11 |  |  | < 0.5 µM | < 0.5 µM | Cc1ccncc1Nc1ncc2cc(-c3cc(NC(=O)c4cccc(C(F)(F)F)c4)ccc3C)ncc2n1 [Compound No. 23, N-(4-methyl-3-(2-((4-methylpyridin-3-yl)amino)pyrido[3,4-d]pyrimidin-6-yl)phenyl)-3-(trifluoromethyl)benzamide] | < 0.5 µM
12 |  |  | < 0.5 µM | < 0.5 µM | Cc1ccc(Nc2ncc3cc(-c4cc(NC(=O)c5cccc(C(F)(F)F)c5)ccc4C)ncc3n2)c(C)n1 [Compound No. 24, N-(3-(2-((2,6-dimethylpyridin-3-yl)amino)pyrido[3,4-d]pyrimidin-6-yl)-4-methylphenyl)-3-(trifluoromethyl)benzamide] | > 5 µM
13 | < 0.1 µM | < 0.1 µM | < 0.5 µM | 0.5 to 3 µM | Cc1ccc(Nc2ncc3c(n2)N(C)C(=O)N(c2cc(NC(=O)c4cccc(C(F)(F)F)c4)ccc2C)C3)cn1 [GNF 7, reference compound] | 3 to 5 µM
